The subject of data set [1] is guinea pig. The experiment in a line: Photoirritation test in guinea pigs. In kind it is in vivo. The protocol:
The potential of the test item 0.1% cream to cause photoallergic and/or photoirritant reactions following topical application to the skin, in association with exposure to ultraviolet light, was assessed using a guinea pig model.
In the first phase, an assessment of the photoirritant properties of the test item was performed in 6 groups of animals. These were used both to establish suitable concentrations of the test item for use in the sensitisation assay and to provide information on photo-induced irritation. Animals were treated as follows (Table 6):
The photoirritation test was undertaken using 2 (irradiated) groups, each of 5 animals, treated with the control and test items, cream placebo and test item 0.1% cream, respectively (cf. Table 6, groups 1 and 3) and 2 similarly constituted groups (cf. Table 6, groups 2 and 4), treated in the same manner but not irradiated. Aliquots of the undiluted test or control item (100%), 2 concentrations (20% and 50% in purified water) of the test and control items and the vehicle alone (purified water), were spread evenly over defined skin sites prepared on the dorsum of the animals. Animals of the irradiated groups (groups 1 and 3) were exposed to both UVA (10 Joules/cm^2) and UVB (0.1 Joules/cm^2) radiation following dosing. […]

Data set [2] relates to Chinese hamster ovary cells. Kind of data set: Chromosome aberrations in Chinese hamster ovary cells in vitro (photomutagenicity assay). Particulars: 3 hours treatment, absence or presence of ultraviolet light.
Method: The test item was assayed for the ability to cause chromosomal damage in Chinese hamster ovary cells, following in vitro treatment in the absence and presence of UVA/UVB irradiation.
Solutions of the test item were prepared in Hank's Balanced Salt Solution (HBSS).
Both in the absence and presence of UV light, the cells were treated for 3 hours and the harvest time of 20 hours, corresponding to approximately 1.5 cell cycle, was used.
The experiment included appropriate negative and positive controls. Two cell cultures were prepared at each test point.
Dose levels were selected for the scoring of chromosomal aberrations on the basis of the cytotoxicity of the test item treatments as determined by the reduction of cell counts at the time of harvesting.
One hundred metaphase spreads were scored for chromosomal aberrations from each culture.
The next data set relates to Balb/c 3T3 cells. In kind it is cell-based. Particulars: mouse. On the procedure: The potential in vitro phototoxicity of the test item was evaluated by the measurements of neutral red uptake for cellular toxicity on cultures of Balb/c 3T3 cells treated with different doses of the test item and exposed to UVA irradiation. Test item solutions were prepared using Earle's Balanced Salt Solution (EBSS).
A preliminary dose-range finding experiment in the presence (+UVA) and in the absence (−UVA) of light was undertaken in order to select appropriate dose levels for the main assays. The test item was assayed at a maximum dose level of 1000 μg/ml (the upper limit indicated in the study protocol) and at a wide range of lower dose levels: 500, 250, 125, 62.5, 31.3, 15.6 and 7.81 μg/ml. […] In this case the chemical is considered to be non-phototoxic. The same dose range was used for the main assay.
A main experiment was performed using the following dose levels: 1000, 500, 250, 125, 62.5, 31.3, 15.6 and 7.81 μg/ml.

Data set [3] concerns guinea pig. Kind of data set: Photosensitisation test in guinea pigs. Type of data set: in vivo. The protocol:
The second phase of the study was an assessment of sensitisation, in which a total of 5 groups were treated as follows (Table 7):
The photosensitisation test was undertaken using 2 groups of 10 animals (cf. Table 7, groups 8 and 9) induced with the control item and the test item and 1 control group of 10 animals (cf. Table 7, group 7) induced with the selected vehicle (purified water). In an attempt to induce sensitisation, animals were intradermally injected with an emulsion of Freund's complete adjuvant. The test and control items, at 100% concentration, were applied topically over the area among the injection sites of FCA a total of 6 times over a 2 week period. Animals were exposed to both UVA (10 Joules/cm^2) and UVB (0.1 Joules/cm^2) radiation following dosing. Control group animals were treated in the same manner but the selected vehicle (purified water) was used in place of the test or control items. Approximately 2 weeks after the final induction exposure, all animals were challenged by topical application of both the vehicle and the test or control item at 20% and 50% concentrations, respectively. These concentrations were selected as they were considered non-irritant to the skin in association with ultraviolet irradiation on the basis of the results obtained at the photoirritation test. Animals of the 2 test groups and the control group were exposed to both UVA (10 Joules/cm^2) and UVB (0.1 Joule/cm^2) radiation following dosing. Additional sites on each animal were topically treated with both the vehicle and test or control items, but treatment was not followed by exposure to ultraviolet irradiation. Approximately 24, 48 and 72 hours after challenge exposure the treated sites were examined for evidence of reaction to treatment.
One group of 5 animals (cf. Table 7, group 11) was induced with this substance at a concentration of 15% in acetone. A control group of 3 animals (cf. Table 7, group 10) was treated in the same manner with the vehicle alone (acetone). A concentration of 10% of the reference item (Musk Ambrette) in acetone was selected for the challenge. […]

In the case of `COc1c2occc2cc2ccc(=O)oc12` [8-Methoxypsoralen], the skin reaction result in the data set on guinea pig [1] (exposed to ultraviolet light, concentrations 0.01% and 0.1%) is “well defined to moderate erythema and a slight oedema”; with guinea pig [1] (without exposure to ultraviolet light), “No response was seen”. In addition, the “cells bearing chromosomal aberrations (including or excluding gaps)” value in data set [2] is “Statistically significant increases”.
Regarding `CN(C)CCCN1c2ccccc2Sc2ccc(Cl)cc21` [Chlorpromazine, reference compound], the “Photo Irritation Factor (PIF)” value with Balb/c 3T3 cells amounted to 21.9.
Regarding `COc1c(C(C)(C)C)cc([N+](=O)[O-])c(C)c1[N+](=O)[O-]` [Musk Ambrette], the response at challenge result with guinea pig [3] (group 10, induced with the vehicle) was “No response to the reference item was observed”; with guinea pig [3] (group 11, sites treated but not irradiated), “No response to the reference item was observed”. In the data set on guinea pig [3] (group 11 (induced at 15% in acetone), challenge at 10% followed by UV irradiation), the “animals responding at challenge (very slight to slight erythema)” value is recorded as 4/5.

Source of the values: US8926955B2, “Synthesis of polymer conjugates of indolocarbazole compounds” (priority 2008, dated 2015).
